{"source": "ChEMBL document CHEMBL4130375", "about": "“Design, synthesis and biological evaluation of 4-amidobenzimidazole acridine derivatives as dual PARP and Topo inhibitors for cancer therapy” (Eur J Med Chem, 2017)", "assay": "Intrinsic clearance in mouse liver microsomes at 1.11 uM preincubated for 5 mins followed by NADPH addition by LC-MS/MS analysis", "type": "ADME, microsome", "details": "read-out: CLH", "data": [{"molecule": "Cc1cccc2c(Nc3cccc(-c4nc5c(C(N)=O)cccc5[nH]4)c3)c3ccccc3nc12", "values": [{"measurement": "microsomal CLint at 1.11 µM", "value": 11.4, "unit": "µL/min/mg"}]}]}
